Test results taken from ChEMBL document CHEMBL1130959, “Synthesis and effects of novel thiazole derivatives against thrombocytopenia” (1998).

Key:
Assay type in all cases: functional
Settings in all cases: route oral
Mus musculus [1] = assay: Percentage of the number of platelets for the treated versus mitomycin C(MMC) control group in the MMC-induced thrombocytopenic mice at a dose of 100 mg/kg following peroral administration
Mus musculus [2] = assay: Percentage of the number of platelets for the treated versus mitomycin C(MMC) control group in the MMC-induced thrombocytopenic mice at a dose of 32 mg/kg following peroral administration
Mus musculus [3] = assay: Percentage of the number of platelets for the treated versus mitomycin C(MMC) control group in the MMC-induced thrombocytopenic mice at a dose of 10 mg/kg following peroral administration

| SMILES | No. of platelets (Mus musculus [1]) [%] | No. of platelets (Mus musculus [2]) [%] | No. of platelets (Mus musculus [3]) [%] |
| --- | --- | --- | --- |
| Nc1ncc(Sc2ccccn2)s1 | 147 | – | – |
| Nc1ncc([S+]([O-])c2ncccn2)s1 (configuration not stated) | – | 116 | – |
| Nc1ncc([S+]([O-])c2cnc3ccccc3n2)s1 (configuration not stated) | 131 | – | – |
| Cc1ccc2nc([S+]([O-])c3cnc(N)s3)ccc2c1 (configuration not stated) | 146 | – | – |
| Nc1ccc(S(=O)(=O)c2ccc(N)cc2)cc1 [DAPSONE] | 150 | 125 | 91 |
| Cc1nc(N)sc1[S+]([O-])c1ccccn1 (configuration not stated) | 118 | – | – |
| Nc1ncc([S+]([O-])c2nc3ccccc3[nH]2)s1 (configuration not stated) | 165 | 112 | 92 |
| Nc1ncc(S(=O)(=O)c2ccccn2)s1 | 139 | 143 | 94 |
| Nc1ncc([S+]([O-])c2cccs2)s1 (configuration not stated) | 138 | – | – |
| Nc1ncc([S+]([O-])c2ccc3cc(F)ccc3n2)s1 (configuration not stated) | 162 | – | – |
| Nc1ncc([S+]([O-])c2cccc3cccnc23)s1 (configuration not stated) | 188 | 123 | 116 |
| [O-][S+](c1ccccn1)c1cncs1 (configuration not stated) | 171 | 148 | 124 |
| Nc1ncc([S+]([O-])c2ccccn2)s1 (configuration not stated) | – | 154 | – |
| CNc1ncc([S+]([O-])c2ccccn2)s1 (configuration not stated) | 132 | – | – |
| Nc1ncc(C(=O)c2ccccn2)s1 | 140 | – | – |
| Nc1ncc([S+]([O-])c2ccc3cccnc3n2)s1 (configuration not stated) | – | 130 | – |
| Nc1ncc([S+]([O-])c2nccs2)s1 (configuration not stated) | 146 | – | – |
| Nc1ncc([S+]([O-])c2ccc3ccccc3n2)s1 (configuration not stated) | 181 | 153 | 138 |
| Nc1ncc([S+]([O-])c2cccnc2)s1 (configuration not stated) | – | 115 | – |
| Nc1nnc([S+]([O-])c2ccc3ccccc3n2)s1 (configuration not stated) | 102 | – | – |
